Experimental data: patent US20250325256A1, “LIPID PATCH” (SENSACH AB, priority 2021, published 2025)
Like-named read-outs stand apart in the source and are kept apart here.

Legend:
[1] = for Kcub/w / log Kcub/w: fully swollen Pn3m cubic phase (GMO/water) vs water; for bilayer/water partitioning, Kcub/w / bilayer/water partitioning, log Kcub/w: fully swollen Pn3m cubic phase (GMO/water), calculated; for partitioning into the cubic lipid bilayer compared to kynurenine: fully swollen GMO cubic phase
Protocol: Four concentrations of Trp and Kyn in a range 0.125 mM to 1 mM, corresponding to lipid:Trp(Kyn) ratio in the range 7200:1-900:1, were prepared in Milli-Q water in order to investigate the effect of concertation on the partitioning. The fully swollen cubic phases (˜0.25 g) were prepared by mixing the appropriate amount of GMO with an excess of Milli-Q water (1:1 weight ratio) in a 1.7 mL glass vials and left to equilibrate for 7 days. When samples were equilibrated (typically within 2 days a glass-clear and non-floating cubic phase was formed), each vial was checked between cross polarizers to ensure that no birefringence could be observed. The excess of water was then removed and 500 μL of solution with different concentrations of Trp/Kyn (molar ratio 1:1) were added to each vial. Final samples were allowed to equilibrate with respect to Trp and Kyn partitioning between the lipid bilayer and the aqueous phase. First sampling was performed after one week of equilibration by withdrawing 50 μL of the aqueous phase. Second sampling was performed in identical manner after 2 weeks of equilibration to investigate the time aspect on the partitioning. All samples collected during the partition study were diluted to a final volume 500 μL with Milli-Q water and filtered with a 0.2 μm syringe filters (13 mm PTFE membrane, VWR International, USA) prior to the HPLC-UV analysis. All partition experiments were performed in triplicates.
The lipid bilayer/water partition coefficient, Kbl/w, may be defined as
where [X] is the concentration of an endogenous substance of interest (e.g., Trp and Kyn) in the bilayer and in water. While concertation of a substance in the aqueous phase can easily be determined by a suitable analytical procedure (e.g., HPLC, LC-MS etc.), determination of the concertation in the bilayer requires two assumptions. […] The second assumption is that the concentration of an endogenous substance in the water channels of the cubic phase is the same as in the water bulk phase, which is based on the equilibrium between chemical potentials of endogenous substances in water channels and in the bulk phase. Thus, the partition coefficient may be calculated by rewriting the Eq. 2 as follows
where Vw is the volume of a water solution containing endogenous substance X added to the cubic phase, [X]0w is the initial concentration of an endogenous substance, [X]w is the concentration of endogenous substance in the water phase after equilibration, Vbl is the volume of GMO, Vcube is the volume of water that was added to GMO to form a cubic phase.
The quantification of Trp and Kyn was performed by HPLC-UV system (Agilent 1100 Series, Germany). The chromatographic separation of Trp and Kyn was carried out on 250 mm×4.6 mm Kromasil C18 column with particle size of 5 μm (AkzoNobel, Bellefonte, USA). Endogenous substances were separated by gradient elution using mobile phase A consisting of 10 mM NaH2PO4 (pH 2.8) and mobile phase B consisting of 100% MeOH at 0.9 mL/min flow rate and 40° C. column temperature. […] The total run time was 17 minutes and injection volume was set to 20 μL. Detection of Trp and Kyn was performed at their UV absorbance maxima, at 280 nm and 360 nm, respectively. Stock solutions of 10 mM of Trp and Kyn for calibration curve were prepared in Milli-Q water and kept in the freezer (−20° C.) for no longer than one day after preparation. Calibration standards for calibration curve were analyzed in the range 0.78 μM to 100 μM (R^2>0.999) the same day as the experimental samples.

[2] = Passive diffusion extraction of Trp and Kyn; assay type: in vitro ADME, pig; details: for Normalized cumulative amount Passive / Cumulative amount Passive / Flux Passive: mean ± SEM
Protocol: Pig skin, purchased from a local abattoir, was gently cleaned post-sacrifice under cold running water. The skin from abdomen or from the inside of the outer ear was used as in vitro skin model. […] Skin samples were then wrapped individually in Parafilm™ and kept at −20° C. for not more than three months until use. Prior to extraction experiments, skin was cut into 4 cm^2 membranes while still being frozen. Prepared skin membranes were then left at ambient environment for 30 minutes to thaw and obtain room temperature. The integrity of each skin membrane was visually inspected against the light in order to ensure that there were no visible damages (holes). Hairs were then further trimmed with scissors and skin was gently rinsed under cold running water.
In order to determine if reverse iontophoresis can enhance the extraction of Trp compared to their passive diffusion extraction, similar experiments were conducted without the current passage. These passive diffusion experiments were conducted using the same horizontal side-by-side cell setup in parallel to reverse iontophoresis experiments in order to ensure identical conditions. In line with reverse iontophoretic experiment, after the 6-hour sampling, subdermal compartment was emptied and experiment was allowed to continue for another 18 hours. Passive diffusion experiments were repeated four times (n=4).
Prior to HPLC-UV analysis, samples were thawed and vortexed.
Anodal, cathodal and passive fluxes of Trp and Kyn were directly calculated from the amount (mol) extracted at each sampling interval and normalized for the surface area available for extraction (0.785 cm^2) and duration of the interval (in hours). The 6-hour flux values were used for the analysis of transport direction as well for comparison between reverse iontophoretic and passive extraction efficiency. The physiochemical properties of both endogenous substances were estimated. In order to compare results, the enhancement ratio (ER) was determined after 6 hours as […]

[3] = assay type: in vitro ADME, pig
Protocol: Therefore, identical reverse iontophoretic extraction experiments were performed with an empty donor solution (i.e., neat PBS buffer pH 7.4) and the results are shown in FIG. 14. As in the previous section, Trp was extracted towards both receptor compartments, however, the main direction of extraction was towards the cathode. […] This is most likely due to the fact that the amount of extracted Kyn was below the limit of detection by means of HPLC-UV. Therefore, a more sensitive analysis technique is required for quantification of endogenously present Kyn. The cumulative amount of extracted Trp to the cathode was 0.44±0.06 nmol/cm^2 and the anode 0.22±0.05 nmol/cm^2.
Control reverse iontophoretic extraction experiments were conducted in order to estimate the levels of endogenous Trp and, potentially Kyn. It is known that Trp is present in the SC as a part of natural moisturizing factor (NMF), which primarily consists of free amino acids and their derivatives55,56. These experiments were performed using the identical experimental setup with a neat PBS buffer (pH 7.4) in the donor compartment (i.e., no Trp or Kyn being present) and 10 mM HEPES with 60 mM NaCl as background electrolyte (pH 7.4). Sampling was performed once an hour for 6 hours by withdrawing 1 mL of receptor solution and replacing it with a 1 mL of fresh HEPES buffer).

[4] = Reverse iontophoretic extraction into GMO cubic phase receptor matrix; assay type: in vitro ADME, pig; details: for Cumulative amount Cubic at anode / Cumulative amount Cubic at cathode: in the cubic phase, 6 h, HEPES pH 7.4; for Cumulative amount Total at anode / Cumulative amount Total at cathode: sum of receptor solution after 6 hours and cubic phase
Protocol: Another objective of the present intention was to investigate the potency of a liquid crystalline cubic phase formed by GMO and water to serve as a matrix for iontophoresis. In order to keep experimental conditions as similar as possible to the previously described experiments, the same horizontal side-by-side cells were used. A fully swollen cubic phase (Pn3m space group) was added into a custom-made sample holder ensuring the formulation was in contact with the skin. In order to prevent contact between the cubic phase and the electrodes, 2 mL of HEPES buffer (pH 7.4, 60 mM NaCl) was added to each receptor compartment. Sampling was performed by withdrawing 1 ml of receptor solution and replacing it with a 1 mL of empty buffer every hour for 6 hours. After the last sampling, the experiment was terminated, and the cubic phase was collected for further analysis. […] It is important to point out that partitioning of Trp and Kyn into cubic bilayer was not taken into account during the calculation of the extracted amounts of respective endogenous substance. The amounts were determined based on the volume of the receptor matrix (100 μL).
The samples for reverse iontophoretic extraction experiments consisting of a liquid crystalline cubic phase were prepared by weighing 0.1 g of glycerol monooleate (GMO) in a 1.8 mL glass vials. GMO was then melted at 45° C. by immersing the vials in the water bath and centrifuged at 1000 g for 5 minutes. The vials were then placed in the freezer (−20° C.) for 30 minutes in order for GMO to crystalize. After crystallization vials were taken out of the freezer and 0.5 g of Milli-Q water was added to each vial, ensuring the excess of added water. […] Prior to use, each vial was examined between cross polarizers for any sign of anisotropy, which would imply that sample had not yet reached equilibrium. […]

[5] = pH 4.0, 24 h amount minus first 6 hours
[6] = pH 7.4, 24 h amount minus first 6 hours
[7] = pH 9.0, 24 h amount minus first 6 hours
[8] = receptor pH 4.0, donor pH 7.4, after 6 h
[9] = receptor pH 7.4, donor pH 7.4, after 6 h
[10] = receptor pH 9.0, donor pH 7.4, after 6 h

Structure (SMILES)	Kcub/w [1]	log Kcub/w [1]	bilayer/water partitioning, Kcub/w [1]	bilayer/water partitioning, log Kcub/w [1]	Normalized cumulative amount Passive [2, 5] [nmol/cm^2]	Normalized cumulative amount Passive [2, 6] [nmol/cm^2]	Normalized cumulative amount Passive [2, 7] [nmol/cm^2]	Cumulative amount Passive [2, 8]	Cumulative amount Passive [2, 9]	Cumulative amount Passive [2, 10]	Cumulative amount Cubic at anode [4] [nmol/cm^2]	Cumulative amount Cubic at cathode [4] [nmol/cm^2]	Cumulative amount Total at anode [4] [nmol/cm^2]	Cumulative amount Total at cathode [4] [nmol/cm^2]	further results
Nc1ccccc1C(=O)C[C@H](N)C(=O)O [Kyn, L-kynurenine]	1.3	0.1	1.5	0.2	0.27 ± 0.27	2.59 ± 1.50	3.81 ± 0.93	<LOQ	<LOQ	<LOQ	0.28 ± 0.28	5.62 ± 0.45	0.28 ± 0.28	7.53 ± 0.83	detection of endogenous Kyn [3]: no Kyn was detected
N[C@@H](Cc1c[nH]c2ccccc12)C(=O)O [Trp, L-tryptophan]	2.2	0.3	3.0	0.5	0.49 ± 0.49	2.87 ± 1.66	3.50 ± 0.48	0.18±0.18 nmol/cm^2	0.62±0.13 nmol/cm^2	0.72±0.09 nmol/cm^2	0.68 ± 0.05	5.29 ± 0.48	0.68 ± 0.05	6.57 ± 1.00	partitioning into the cubic lipid bilayer compared to kynurenine [1]: twice as high; partitioning into the cubic lipid bilayer compared to kynurenine ([1]; listed as tryptophan): approximately twice as high; Ratio (Trp/Kyn) Passive ([2]; pH 4.0, from normalized cumulative amounts): 1.81; cumulative amount by passive diffusion (QP) ([2]; pH 7.4, after 5 hours): 0.54±0.12 nmol/cm^2; cumulative amount by passive diffusion (QP) ([2]; pH 7.4, after the first hour): 0.30±0.04 nmol/cm^2; Ratio (Trp/Kyn) Passive ([2]; pH 7.4, from normalized cumulative amounts): 1.27; Ratio (Trp/Kyn) Passive ([2]; pH 9.0, from normalized cumulative amounts): 1.22 ± 0.19; Flux Passive ([2]; receptor pH 4.0, after 6 hours): 0.01 ± 0.01 nmol/(h · cm^2); Flux Passive ([2]; receptor pH 7.4, after 6 hours): 0.07 ± 0.03 nmol/(h · cm^2); Flux Passive ([2]; receptor pH 9.0, after 6 hours): 0.10 ± 0.03 nmol/(h · cm^2); contribution of endogenous Trp to the total cumulative amount of extracted Trp (at the cathode) ([3]; pig, 6 h, pH 7.4): approximately 6%; cumulative amount of extracted endogenous Trp to the anode ([3]; pig, 6 h, pH 7.4): 0.22±0.05 nmol/cm^2; cumulative amount of extracted endogenous Trp to the cathode ([3]; pig, 6 h, pH 7.4): 0.44±0.06 nmol/cm^2; Ratio Trp/Kyn at cathode cubic ([4]; from amounts in the cubic phase): 0.94 ± 0.04; Ratio Trp/Kyn at cathode total ([4]; from the total cumulative amount): 0.86 ± 0.05
